According to article PMC7859440, “Transporter Gene Regulation in Sandwich Cultured Human Hepatocytes Through the Activation of Constitutive Androstane Receptor (CAR) or Aryl Hydrocarbon Receptor (AhR)” (Frontiers in Pharmacology, 2021):
“And” between values parts separate entries of the source, which are not always exact repeats. Equal entries are not always repeated.

Columns and labels:
[1] = tested on: CYP1A1; test: in vitro
Protocol: (§1) Cryopreserved human hepatocytes were quickly thawed at 37°C and then transferred into hepatocyte thawing medium. Cells were pelleted at 100 × g for 10 min and then resuspended in hepatocyte complete plating medium (CP medium). The cells were then seeded at 65,000 cells per well in 96-well collagen I coated plates. After cell attachment (4–6 h post-seeding), CP medium was exchanged for ice-cold complete incubation medium (HI medium) containing BD Matrigel™ at the concentration of 0.25 mg/ml. The cells were then incubated overnight at 37°C in a humidified 5% CO2 incubator. […] Cell death or loss of adhesion of hepatocytes during or after treatment were examined by microscopy.
A RNeasy 96 Kit (Qiagen) was used to extract the total cellular RNA from sandwich cultured hepatocytes in 96-well plates following the manufacturer's instructions. A total volume of 200 μL RNA was obtained via the column elution provided in the RNeasy kit. Five μL RNA extraction was mixed with TaqMan® Fast Virus 1-Step Master Mix (Life Technologies) in a final reaction volume of 20 μL and qRT-PCR was achieved using a QuantStudio 6 Flex Real-Time PCR System (Life Technologies), following the manufacturer's instructions. β-actin mRNA expression in the SCHH was used as a house-keeping gene for the normalization of target gene expressions. The mRNA levels in SCHH treated with AhR or CAR activators were expressed by a fold change, compared to the gene expressions without the treatment. The 2^−ΔΔCt method ([Livak and Schmittgen, 2001]) was used to analyze the relative changes in gene expression, where the Ct is the cycle number at which the fluorescence in the reaction crosses the preset arbitrary threshold; the ΔCt represents the difference between the Ct target and reference and the ΔΔCt is the difference between the ΔCt of the test and the ΔCt of the preassigned control. Gene expression for each condition is expressed as a fold-change of mean ± standard deviation (SD) from three independent donors (each performed in triplicate). All primer and probe sets were purchased from Life Technologies (Table 2). […]

[2] = tested on: CYP3A4; test: in vitro; details: greater than 50% reduction, in only two donors among three lots of hepatocytes
Protocol: as §1
A RNeasy 96 Kit (Qiagen) was used to extract the total cellular RNA from sandwich cultured hepatocytes in 96-well plates following the manufacturer's instructions. A total volume of 200 μL RNA was obtained via the column elution provided in the RNeasy kit. Five μL RNA extraction was mixed with TaqMan® Fast Virus 1-Step Master Mix (Life Technologies) in a final reaction volume of 20 μL and qRT-PCR was achieved using a QuantStudio 6 Flex Real-Time PCR System (Life Technologies), following the manufacturer's instructions. β-actin mRNA expression in the SCHH was used as a house-keeping gene for the normalization of target gene expressions. The mRNA levels in SCHH treated with AhR or CAR activators were expressed by a fold change, compared to the gene expressions without the treatment. […] Gene expression for each condition is expressed as a fold-change of mean ± standard deviation (SD) from three independent donors (each performed in triplicate). All primer and probe sets were purchased from Life Technologies (Table 2). When concentration-dependent induction observed, the in vitro induction mRNA data were fitted using the sigmoid 3-parameter equation in GraphPad Prism (La Jolla, CA) to estimate the in vitro concentration of inducer that produced half the maximum induction values (EC50).

[3] = tested on: CYP2C9; details: SCHH, 72 h; TCDD 50 nM, OP 50 µM, CITCO 5 µM, PB 1,000 µM (highest conc.); mean ± SD, three donors
Protocol: as §1
A RNeasy 96 Kit (Qiagen) was used to extract the total cellular RNA from sandwich cultured hepatocytes in 96-well plates following the manufacturer's instructions. […] The 2^−ΔΔCt method ([Livak and Schmittgen, 2001]) was used to analyze the relative changes in gene expression, where the Ct is the cycle number at which the fluorescence in the reaction crosses the preset arbitrary threshold; the ΔCt represents the difference between the Ct target and reference and the ΔΔCt is the difference between the ΔCt of the test and the ΔCt of the preassigned control. Gene expression for each condition is expressed as a fold-change of mean ± standard deviation (SD) from three independent donors (each performed in triplicate). […]

[4] = tested on: UGT1A1; test: gene induction in sandwich-cultured human hepatocytes (qRT-PCR)
Protocol: as §1
(§2) A RNeasy 96 Kit (Qiagen) was used to extract the total cellular RNA from sandwich cultured hepatocytes in 96-well plates following the manufacturer's instructions. A total volume of 200 μL RNA was obtained via the column elution provided in the RNeasy kit. Five μL RNA extraction was mixed with TaqMan® Fast Virus 1-Step Master Mix (Life Technologies) in a final reaction volume of 20 μL and qRT-PCR was achieved using a QuantStudio 6 Flex Real-Time PCR System (Life Technologies), following the manufacturer's instructions. β-actin mRNA expression in the SCHH was used as a house-keeping gene for the normalization of target gene expressions. The mRNA levels in SCHH treated with AhR or CAR activators were expressed by a fold change, compared to the gene expressions without the treatment. The 2^−ΔΔCt method ([Livak and Schmittgen, 2001]) was used to analyze the relative changes in gene expression, where the Ct is the cycle number at which the fluorescence in the reaction crosses the preset arbitrary threshold; the ΔCt represents the difference between the Ct target and reference and the ΔΔCt is the difference between the ΔCt of the test and the ΔCt of the preassigned control. Gene expression for each condition is expressed as a fold-change of mean ± standard deviation (SD) from three independent donors (each performed in triplicate). All primer and probe sets were purchased from Life Technologies (Table 2). When concentration-dependent induction observed, the in vitro induction mRNA data were fitted using the sigmoid 3-parameter equation in GraphPad Prism (La Jolla, CA) to estimate the in vitro concentration of inducer that produced half the maximum induction values (EC50).

[5] = tested on: ABCB1 (MDR1); test: as above; type: cell-based; details: SCHH, 72 h; TCDD 50 nM, OP 50 µM, CITCO 5 µM, PB 1,000 µM (highest conc.); mean ± SD, three donors
Protocol: as §1, §2

[6] = tested on: ABCB11 (BSEP); test: as above; type: cell-based; details: SCHH, 72 h; TCDD 50 nM, OP 50 µM, CITCO 5 µM, PB 1,000 µM (highest conc.); mean ± SD, three donors
Protocol: as §1, §2

[7] = tested on: ABCC2 (MRP2); test: as above; type: cell-based; details: SCHH, 72 h; TCDD 50 nM, OP 50 µM, CITCO 5 µM, PB 1,000 µM (highest conc.); mean ± SD, three donors
Protocol: as §1, §2

[8] = tested on: ABCC3 (MRP3); test: as above; type: cell-based; details: SCHH, 72 h; TCDD 50 nM, OP 50 µM, CITCO 5 µM, PB 1,000 µM (highest conc.); mean ± SD, three donors
Protocol: as §1, §2

[9] = tested on: ABCC4 (MRP4); test: as above; type: cell-based; details: SCHH, 72 h; TCDD 50 nM, OP 50 µM, CITCO 5 µM, PB 1,000 µM (highest conc.); mean ± SD, three donors
Protocol: as §1, §2

[10] = tested on: ABCC5 (MRP5); test: as above; type: cell-based; details: SCHH, 72 h; TCDD 50 nM, OP 50 µM, CITCO 5 µM, PB 1,000 µM (highest conc.); mean ± SD, three donors
Protocol: as §1, §2

[11] = tested on: ABCC6 (MRP6); test: as above; type: cell-based; details: SCHH, 72 h; TCDD 50 nM, OP 50 µM, CITCO 5 µM, PB 1,000 µM (highest conc.); mean ± SD, three donors
Protocol: as §1, §2

[12] = tested on: SLC22A1 (OCT1); test: as above; type: cell-based; details: SCHH, 72 h; TCDD 50 nM, OP 50 µM, CITCO 5 µM, PB 1,000 µM (highest conc.); mean ± SD, three donors
Protocol: as §1, §2

[13] = tested on: SLC47A1 (MATE1); test: as above; type: cell-based; details: SCHH, 72 h; TCDD 50 nM, OP 50 µM, CITCO 5 µM, PB 1,000 µM (highest conc.); mean ± SD, three donors
Protocol: as §1, §2

[14] = tested on: SLCO1B1 (OATP1B1); test: as above; type: cell-based; details: SCHH, 72 h; TCDD 50 nM, OP 50 µM, CITCO 5 µM, PB 1,000 µM (highest conc.); mean ± SD, three donors
Protocol: as §1, §2

[15] = tested on: SLCO1B3 (OATP1B3); test: as above; type: cell-based; details: SCHH, 72 h; TCDD 50 nM, OP 50 µM, CITCO 5 µM, PB 1,000 µM (highest conc.); mean ± SD, three donors
Protocol: as §1, §2

[16] = tested on: SLCO2B1 (OATP2B1); test: as above; type: cell-based; details: SCHH, 72 h; TCDD 50 nM, OP 50 µM, CITCO 5 µM, PB 1,000 µM (highest conc.); mean ± SD, three donors
Protocol: as §1, §2

[17] = tested on: SLCO4C1 (OATP4C1); test: as above; type: cell-based; details: SCHH, 72 h; TCDD 50 nM, OP 50 µM, CITCO 5 µM, PB 1,000 µM (highest conc.); mean ± SD, three donors
Protocol: as §1, §2

[18] = tested on: SLC10A1 (NTCP); test: as above; type: cell-based; details: SCHH
Protocol: A RNeasy 96 Kit (Qiagen) was used to extract the total cellular RNA from sandwich cultured hepatocytes in 96-well plates following the manufacturer's instructions. A total volume of 200 μL RNA was obtained via the column elution provided in the RNeasy kit. Five μL RNA extraction was mixed with TaqMan® Fast Virus 1-Step Master Mix (Life Technologies) in a final reaction volume of 20 μL and qRT-PCR was achieved using a QuantStudio 6 Flex Real-Time PCR System (Life Technologies), following the manufacturer's instructions. β-actin mRNA expression in the SCHH was used as a house-keeping gene for the normalization of target gene expressions. The mRNA levels in SCHH treated with AhR or CAR activators were expressed by a fold change, compared to the gene expressions without the treatment. The 2^−ΔΔCt method ([Livak and Schmittgen, 2001]) was used to analyze the relative changes in gene expression, where the Ct is the cycle number at which the fluorescence in the reaction crosses the preset arbitrary threshold; the ΔCt represents the difference between the Ct target and reference and the ΔΔCt is the difference between the ΔCt of the test and the ΔCt of the preassigned control. Gene expression for each condition is expressed as a fold-change of mean ± standard deviation (SD) from three independent donors (each performed in triplicate). […] When concentration-dependent induction observed, the in vitro induction mRNA data were fitted using the sigmoid 3-parameter equation in GraphPad Prism (La Jolla, CA) to estimate the in vitro concentration of inducer that produced half the maximum induction values (EC50).

[19] = tested on: SLC15A1 (PEPT1); test: as above; type: cell-based; details: SCHH, 72 h; TCDD 50 nM, OP 50 µM, CITCO 5 µM, PB 1,000 µM (highest conc.); mean ± SD, three donors
[20] = tested on: SLC16A1 (MCT1); test: as above; type: cell-based; details: SCHH, 72 h; TCDD 50 nM, OP 50 µM, CITCO 5 µM, PB 1,000 µM (highest conc.); mean ± SD, three donors
[21] = tested on: SLC22A7 (OAT2); test: as above; type: cell-based; details: SCHH, 72 h; TCDD 50 nM, OP 50 µM, CITCO 5 µM, PB 1,000 µM (highest conc.); mean ± SD, three donors
[22] = tested on: SLC22A9 (OAT7); test: as above; type: cell-based; details: SCHH, 72 h; TCDD 50 nM, OP 50 µM, CITCO 5 µM, PB 1,000 µM (highest conc.); mean ± SD, three donors
[23] = tested on: SLC22A5 (OCTN2); test: as above; type: cell-based; details: SCHH, 72 h; TCDD 50 nM, OP 50 µM, CITCO 5 µM, PB 1,000 µM (highest conc.); mean ± SD, three donors
[24] = tested on: SLC29A1 (ENT1); test: as above; type: cell-based; details: SCHH, 72 h; TCDD 50 nM, OP 50 µM, CITCO 5 µM, PB 1,000 µM (highest conc.); mean ± SD, three donors
[25] = tested on: SLC29A2 (ENT2); test: as above; type: cell-based; details: SCHH, 72 h; TCDD 50 nM, OP 50 µM, CITCO 5 µM, PB 1,000 µM (highest conc.); mean ± SD, three donors
[26] = tested on: SLC51A (OSTα); test: as above; type: cell-based; details: SCHH, 72 h; TCDD 50 nM, OP 50 µM, CITCO 5 µM, PB 1,000 µM (highest conc.); mean ± SD, three donors
[27] = tested on: SLC51B (OSTβ); test: as above; type: cell-based; details: SCHH, 72 h; TCDD 50 nM, OP 50 µM, CITCO 5 µM, PB 1,000 µM (highest conc.); mean ± SD, three donors
[28] = SCHH, 72 h, TCDD 50 nM, OP 50 µM, CITCO 5 µM, PB 1,000 µM (highest conc.), mean ± SD, three donors

Clc1cc2c(cc1Cl)Oc1cc(Cl)c(Cl)cc1O2 [TCDD, 2,3,7,8-tetrachlorodibenzo-p-dioxin]
CYP1A1 mRNA fold change [1, 28]: 38 fold and 38.1 ± 19.2 fold | EC50 at 72 h ([1]; human): 0.5 ± 0.11 nM | CYP3A4 mRNA fold change in single donors [2]: < 0.5 fold | CYP2C9 mRNA fold change [3]: 0.8 ± 0.3 fold | UGT1A1 mRNA fold change [4, 28]: 4.3 fold and 4.3 ± 1.5 fold | EC50 at 72 h ([4]; human): 1.56 ± 0.4 nM | ABCB1 (MDR1) mRNA fold change [5]: 1.0 ± 0.3 fold | ABCB11 (BSEP) mRNA fold change [6]: 0.7 ± 0.3 fold | ABCC2 (MRP2) mRNA fold change [7]: 0.9 ± 0.3 fold | ABCC3 (MRP3) mRNA fold change [8]: 1.0 ± 0.2 fold | ABCC4 (MRP4) mRNA fold change [9]: 0.7 ± 0.2 fold | ABCC5 (MRP5) mRNA fold change [10]: 0.9 ± 0.3 fold | ABCC6 (MRP6) mRNA fold change [11]: 0.8 ± 0.2 fold | SLC22A1 (OCT1) mRNA fold change [12]: 0.7 ± 0.3 fold | SLC47A1 (MATE1) mRNA fold change [13]: 0.9 ± 0.3 fold | SLCO1B1 (OATP1B1) mRNA fold change [14]: 1.0 ± 0.4 fold | SLCO1B3 (OATP1B3) mRNA fold change [15]: 0.8 ± 0.5 fold | SLCO2B1 (OATP2B1) mRNA fold change [16]: 1.1 ± 0.4 fold | SLCO4C1 (OATP4C1) mRNA fold change [17]: 0.8 ± 0.3 fold | SLC10A1 (NTCP) mRNA fold change ([18]; 72 h, TCDD 50 nM, OP 50 µM, CITCO 5 µM, PB 1,000 µM (highest conc.), mean ± SD, three donors): 0.5 ± 0.2 fold | SLC10A1 gene suppression (reduction) ([18]; 3 days, highest concentration treated): about 2 fold | SLC15A1 (PEPT1) mRNA fold change [19]: 1.2 ± 0.3 fold | SLC16A1 (MCT1) mRNA fold change [20]: 1.0 ± 0.2 fold | SLC22A7 (OAT2) mRNA fold change [21]: 0.8 ± 0.2 fold | SLC22A9 (OAT7) mRNA fold change [22]: 0.9 ± 0.2 fold | SLC22A5 (OCTN2) mRNA fold change [23]: 1.1 ± 0.2 fold | SLC29A1 (ENT1) mRNA fold change [24]: 0.9 ± 0.4 fold | SLC29A2 (ENT2) mRNA fold change [25]: 1.0 ± 0.2 fold | SLC51A (OSTα) mRNA fold change [26]: 1.5 ± 0.3 fold | SLC51B (OSTβ) mRNA fold change [27]: 1.6 ± 0.3 fold
